According to ChEMBL document CHEMBL3112457, “Inhibition of hypoxia-inducible factor prolyl hydroxylase domain oxygen sensors: tricking the body into mounting orchestrated survival and repair responses” (J Med Chem, 2013):
Values belong to the compound of their own block, whether it stands above or below them.

Assays:
[1] = species: Homo sapiens; test: Inhibition of prolyl hydroxylase (unknown origin) assessed as stimulation of EPO release by cell-based assay
[2] = target: T1, Egl nine homolog 1 (Homo sapiens, UniProt Q9GZT9); test: Inhibition of PHD2 (unknown origin)
Target sequence in this assay (Q9GZT9 whole entry): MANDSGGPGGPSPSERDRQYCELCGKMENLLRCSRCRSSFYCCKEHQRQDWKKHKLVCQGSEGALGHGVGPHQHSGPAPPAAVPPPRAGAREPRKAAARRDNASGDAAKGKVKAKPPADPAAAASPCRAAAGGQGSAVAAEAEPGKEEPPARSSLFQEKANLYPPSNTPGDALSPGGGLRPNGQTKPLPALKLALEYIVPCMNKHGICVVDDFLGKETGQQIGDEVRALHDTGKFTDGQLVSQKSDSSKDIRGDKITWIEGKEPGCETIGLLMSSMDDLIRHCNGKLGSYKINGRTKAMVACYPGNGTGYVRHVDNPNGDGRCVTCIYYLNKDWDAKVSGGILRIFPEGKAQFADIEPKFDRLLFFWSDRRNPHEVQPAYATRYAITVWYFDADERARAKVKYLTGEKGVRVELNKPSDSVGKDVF

[3] = Inhibition of human CPH2 assessed as 2-Oxoglutarate conversion to succinic acid after 1 hr by radiometric HPLC analysis
[4] = target: T1, Egl nine homolog 1; test: Inhibition of PHD2 (unknown origin) using P564 HIFlalpha as substrate after 1 hr by TR-FRET assay
Target sequence in this assay (Q9GZT9 whole entry): as above

[5] = target: T1, Egl nine homolog 1; test: Inhibition of FLAG-tagged full length PHD2 (unknown origin) expressed in Sf9 cells using HIF-1alpha peptide as substrate preincubated for 30 mins followed by substrate addition measured after 2 hrs by HTRF assay in presence of 2-oxoglutarate
Target sequence in this assay (Q9GZT9 whole entry): as above

[6] = target: T2, Prolyl hydroxylase EGLN3 (Homo sapiens, UniProt Q9H6Z9); test: Inhibition of PHD3 in human Hep3B cells assessed as stimulation of EPO release after 48 hrs by ELISA; type: cell-based, Hep 3B2
[7] = target: T2, Prolyl hydroxylase EGLN3; test: Inhibition of 6His-tagged PHD3 (1 to 239) (unknown origin)-mediated Cy5CODD hydroxylation expressed in Escherichia coli after 30 mins
[8] = Inhibition of human CPH1 assessed as 2-Oxoglutarate conversion to succinic acid after 1 hr by radiometric HPLC analysis
[9] = target: T2, Prolyl hydroxylase EGLN3; test: Inhibition of full length human recombinant EGLN-3 using DLDLEALAPYIPADDDFQL as substrate after 20 mins by mass spectrophotometric analysis
[10] = target: T1, Egl nine homolog 1; test: Inhibition of human recombinant EGLN-1 using DLDLEALAPYIPADDDFQL as substrate after 20 mins by mass spectrophotometric analysis
Target sequence in this assay (Q9GZT9 whole entry): as above

[11] = target: T1, Egl nine homolog 1; test: Inhibition of HIF-PH2 (unknown origin) expressed in insect Hi5 cells using [methoxycoumarin]-DLDLEALAPYIPADDDFQL-amide as substrate at 22.2 uM by [14]CO2 capture assay relative to control; conditions: BTI-TN-5B1-4
Target sequence in this assay (Q9GZT9 2-426 limits assumed): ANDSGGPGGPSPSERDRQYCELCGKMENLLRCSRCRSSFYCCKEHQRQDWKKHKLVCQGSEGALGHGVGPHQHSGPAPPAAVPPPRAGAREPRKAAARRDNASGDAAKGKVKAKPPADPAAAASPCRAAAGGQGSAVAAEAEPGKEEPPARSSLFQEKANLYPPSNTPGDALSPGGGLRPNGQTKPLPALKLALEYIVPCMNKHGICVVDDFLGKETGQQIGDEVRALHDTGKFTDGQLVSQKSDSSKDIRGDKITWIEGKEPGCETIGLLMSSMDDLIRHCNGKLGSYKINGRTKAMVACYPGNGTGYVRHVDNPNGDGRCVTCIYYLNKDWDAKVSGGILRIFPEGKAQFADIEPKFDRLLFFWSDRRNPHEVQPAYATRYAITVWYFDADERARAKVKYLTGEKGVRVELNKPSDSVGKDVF

[12] = test system: Homo sapiens; test: Antianemic activity in chronic kidney disease patient assessed as increase in hemoglobin level at 1250 mg, po administered twice weekly for 15 weeks measured after 4 weeks relative to control; type: functional
[13] = test system: Homo sapiens; test: Antianemic activity in chronic kidney disease patient assessed as increase in hemoglobin level at 6 to 20 mg/kg administered twice weekly for 4 weeks relative to control; type: functional; conditions: dose mg/kg 6-20
[14] = test system: Homo sapiens; test: Increase in plasma EPO level in human at 20 mg/kg, po administered for 7 days relative to control; type: functional
[15] = test system: Homo sapiens; test: Increase in plasma EPO level in anephric end stage renal disease patient at 20 mg/kg, po administered for 7 days relative to control; type: functional
[16] = test system: Homo sapiens; test: Antianemic activity in chronic kidney disease patient assessed as increase in hemoglobin level at 625 mg, po administered twice weekly for 15 weeks (reference value: 0.2 g/dl); type: functional
[17] = test system: Homo sapiens; test: Antianemic activity in chronic kidney disease patient assessed as increase in hemoglobin level at 375 mg, po administered twice weekly for 15 weeks (reference value: 0.2 g/dl); type: functional
[18] = test system: Homo sapiens; test: Antianemic activity in chronic kidney disease patient assessed as increase in hemoglobin level at 1250 mg, po administered twice weekly for 15 weeks (reference value: 0.2 g/dl); type: functional
[19] = test system: Homo sapiens; test: Antianemic activity in chronic kidney disease patient assessed as increase in hemoglobin level at 625 mg, po administered twice weekly for 15 weeks measured after 4 weeks relative to control; type: functional
[20] = test system: Homo sapiens; test: Antianemic activity in chronic kidney disease patient assessed as increase in hemoglobin level at 375 mg, po administered twice weekly for 15 weeks measured after 4 weeks relative to control; type: functional
[21] = test system: Homo sapiens; test: Antianemic activity in chronic kidney disease patient assessed as increase in hemoglobin level at 20 mg/kg, po administered 3 times per week for 4 weeks (reference value: 0.35 g/dL); type: functional
[22] = test system: Homo sapiens; test: Increase in plasma EPO level in nephric end stage renal disease patient at 20 mg/kg, po administered for 7 days relative to control; type: functional
[23] = test system: Hep 3B2; test: Inhibition of prolyl hydroxylase in human Hep3B cells assessed as stimulation of EPO release at 100 uM after 24 hrs relative to control; type: cell-based; design: scale not given: the % may be the effect or the level left
[24] = target: T2, Prolyl hydroxylase EGLN3; test: Inhibition of 6His-tagged PHD3 (1 to 239) (unknown origin)-mediated Cy5CODD hydroxylation expressed in Escherichia coli preincubated for 3 mins followed by substrate addition measured after 30 mins
[25] = test system: Homo sapiens; test: Antianemic activity in chronic kidney disease patient assessed as hemoglobin level administered for 4 weeks; type: functional
[26] = test system: Homo sapiens; test: Antianemic activity in human assessed as change in hemoglobin level administered thrice weekly for 12 weeks; type: functional
[27] = test system: Homo sapiens; test: Reduction in total cholesterol level in chronic kidney disease patient administered for 16 to 24 weeks relative to control; type: functional; design: scale not given: the % may be the effect or the level left
[28] = test system: Homo sapiens; test: Antianemic activity in end stage renal disease patient receiving hemodialysis assessed as increase in hemoglobin level at 1.5 to 2 mg/kg, po administered thrice weekly for 6 weeks relative to control; type: functional; conditions: dose mg/kg 1.5-2
[29] = test system: Homo sapiens; test: Antianemic activity in nondialysis chronic kidney disease patient assessed as increase in hemoglobin level at 60 to 150 mg administered twice/thrice weekly for 16 to 24 weeks; type: functional
[30] = target: T1, Egl nine homolog 1; test: Inhibition of HIF-PH2 (unknown origin) expressed in insect Hi5 cells using [methoxycoumarin]-DLDLEALAPYIPADDDFQL-amide as substrate at 7.4 uM by [14]CO2 capture assay relative to control; conditions: BTI-TN-5B1-4
Target sequence in this assay (Q9GZT9 2-426 limits assumed): as above

T2 sequence (Q9H6Z9 whole entry): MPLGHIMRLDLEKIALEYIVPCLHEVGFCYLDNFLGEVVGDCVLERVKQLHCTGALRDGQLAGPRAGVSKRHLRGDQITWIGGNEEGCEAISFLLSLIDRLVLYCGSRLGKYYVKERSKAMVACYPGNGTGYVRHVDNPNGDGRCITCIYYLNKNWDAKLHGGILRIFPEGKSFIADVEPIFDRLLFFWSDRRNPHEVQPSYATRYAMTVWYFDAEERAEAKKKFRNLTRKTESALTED

SMILES: O=C(O)c1cnn(-c2nc3cc(OC(F)(F)F)c(Cl)cc3[nH]2)c1
A50 [1]: 50 µM | IC50 [2]: 100 nM

SMILES: Cn1c(=O)c(C(=O)CCC(=O)O)c(O)c2ccc(Br)cc21
IC50 [3]: 13000 nM

SMILES: O=C(O)CNC(=O)c1c(O)c2c(n(Cc3ccc(C(F)(F)F)cc3)c1=O)CN(C(=O)C1CC1)C2
IC50 [5]: < 10 nM

SMILES: O=C(O)CNC(=O)c1c(O)c(C(=O)NCc2ccccc2)cn(Cc2ccccc2)c1=O
EC50 [6]: 1 nM

SMILES: Cc1c(O)c(C(=O)NCC(=O)O)c(=O)n(Cc2ccccc2)c1C
EC50 [6]: > 10000 nM

SMILES: O=C(O)CNC(=O)c1nc(Cl)c2ccccc2c1O
Activity [12]: 76% | Activity [13]: 1.3 g/dL | fold change (FC) [14]: 12.7 | fold change (FC) [15]: 14.5 | Activity [16]: 1.4 g/dL | Activity [17]: 1.1 g/dL | Activity [18]: 2.4 g/dL | Activity [19]: 60% | Activity [20]: 50% | Activity [21]: 1.9 g/dL | fold change (FC) [22]: 30.8

SMILES: O=C(O)c1cnn(-c2nc(N3CCCC3)c3cc(Oc4ccc(Cl)cc4)ccc3n2)c1
Activity [23]: 96%

SMILES: O=C(O)CNC(=O)c1c(O)c2c(n(CC3Cc4ccccc4C3)c1=O)COC2
IC50 [5]: < 10 nM

SMILES: Cc1ccccc1-c1ccc2nc(-n3cc(C(=O)O)cn3)[nH]c(=O)c2c1
Activity [23]: 60%

SMILES: Cc1nc(C(=O)NCC(=O)O)c(O)c2ccc(Oc3ccccc3)cc12 [ROXADUSTAT]
Activity [25]: 1 g/dL | Activity [26]: 2.1 g/dL | Activity [27]: -20% | Activity [28]: 1 g/dL | Activity [29]: 1.4 g/dL

SMILES: COc1ccc(-n2c(=S)[nH]c3sc(C(=O)NCc4ccc(Cl)cc4)c(C)c3c2=O)nc1OC
EC50 [6]: 1000 nM | IC50 [24]: 1 nM

SMILES: O=C(O)CNC(=O)c1c(O)c2c(n(Cc3ccc(C(F)(F)F)cc3)c1=O)CSC2
IC50 [5]: < 10 nM

The next lines start with the values.

IC50 [4]: 3 nM
SMILES: O=C(O)CNC(=O)C1=C(O)c2ccccc2C1=O

IC50 [4]: 3 nM
SMILES: Cn1c(=O)c(C(=O)NCC(=O)O)c(O)c2sccc21

EC50 [6]: > 10000 nM
SMILES: O=C(O)CNC(=O)c1c(O)n2ccccc2nc1=O

IC50 [7]: 0.8 nM | EC50 [6]: 400 nM
SMILES: CC(C)(C)c1ccc(Cn2nc(-c3ccc(Cl)cc3)c(O)c(C(=O)NCC(=O)O)c2=O)cc1

IC50 [8]: 351 nM | IC50 [3]: 111 nM
SMILES: Cn1c(=O)c(C(=O)NCC(=O)O)c(O)c2ccc(Br)cc21

IC50 [9]: > 500000 nM | IC50 [10]: > 500000 nM
SMILES: O=C(O)CNC(=O)c1ccc(-c2ccc3ccccc3c2)cn1

inhibition [11]: 100%
SMILES: O=C(O)CNC(=O)c1nc(-c2cn(Cc3ccccc3)nn2)c2snc(-c3ccc(Cl)cc3)c2c1O

IC50 [4]: < 100 nM
SMILES: O=C(O)CNC(=O)C1=C(O)c2ccc(Cl)cc2C2(CCOCC2)C1=O

EC50 [6]: 100 nM | IC50 [24]: 1 nM
SMILES: O=C(O)CNC(=O)c1c(O)c(-c2cccnc2)cc2nccnc12

inhibition [30]: 99%
SMILES: O=C(O)CNC(=O)c1c(O)c2cc(Cl)cc(C#Cc3ccccc3)c2sc1=O
